Experimental data reported in ChEMBL document CHEMBL5120759, “Synthesis, Biological Evaluation, and Molecular Docking Study of 3-Amino and 3-Hydroxy-seco A Derivatives of α-Amyrin and 3-Epilupeol as Inhibitors of COX-2 Activity and NF-kB Activation” (J Nat Prod, 2022).
The source made the active and inactive calls. The rule behind the calls is not given here.

Key:
[1] = Cytotoxicity against mouse RAW264.7 cells assessed as cell viability at 70 uM incubated for 24 hrs by MTS assay relative to control; assay type: toxicity, cell-based; conditions: read-out: Activity
RAW264.7 [2] = test: Antiinflammatory activity against LPS-stimulated mouse RAW264.7 cells assessed as inhibition of NO production incubated for 2 hrs followed by LPS stimulation for 20 hrs by Griess reagent based assay; assay type: functional, cell-based
RAW264.7 [3] = test: Antiinflammatory activity against LPS-stimulated mouse RAW264.7 cells assessed as inhibition of IL-6 production incubated for 2 hrs followed by LPS stimulation for 20 hrs by ELISA; assay type: functional, cell-based
RAW-Blue [4] = test: Inhibition of NF-kappaB activation in LPS-stimulated mouse RAW-Blue cells at 35 uM preincubated for 2 hrs followed by LPS stimulation and measured after 20 hrs by QUANTI-Blue assay; assay type: cell-based; conditions: time 22.0 hrs
RAW264.7 [5] = test: Antiinflammatory activity against LPS-stimulated mouse RAW264.7 cells assessed as inhibition of TNF-alpha production at 35 uM incubated for 2 hrs followed by LPS stimulation for 20 hrs by ELISA relative to control; assay type: functional; conditions: time 22 hrs
RAW264.7 [6] = test: Antiinflammatory activity against LPS-stimulated mouse RAW264.7 cells assessed as inhibition of NO production at 4.4 to 35 uM prestimulated with LPS and 2 hrs later incubated with compound by Griess reagent based assay; assay type: functional, cell-based; conditions: dose 4.4-35 µM
RAW264.7 [7] = test: Antiinflammatory activity against LPS-stimulated mouse RAW264.7 cells assessed as inhibition of TNF-alpha production at 8.8 to 35 uM prestimulated with LPS and 2 hrs later incubated with compound by […] assay; assay type: functional, cell-based; conditions: dose 8.8-35 µM
[8] = target: T1, COX-1 (Prostaglandin G/H synthase 1) (Ovis aries, UniProt P05979); test: Inhibition of ovine COX-1 at 17.5 uM using arachidonic acid as substrate by colorimetric analysis; assay type: single protein; conditions: sheep, ovine COX-1 enzyme, probe arachidonic acid
T1 sequence (P05979 whole entry): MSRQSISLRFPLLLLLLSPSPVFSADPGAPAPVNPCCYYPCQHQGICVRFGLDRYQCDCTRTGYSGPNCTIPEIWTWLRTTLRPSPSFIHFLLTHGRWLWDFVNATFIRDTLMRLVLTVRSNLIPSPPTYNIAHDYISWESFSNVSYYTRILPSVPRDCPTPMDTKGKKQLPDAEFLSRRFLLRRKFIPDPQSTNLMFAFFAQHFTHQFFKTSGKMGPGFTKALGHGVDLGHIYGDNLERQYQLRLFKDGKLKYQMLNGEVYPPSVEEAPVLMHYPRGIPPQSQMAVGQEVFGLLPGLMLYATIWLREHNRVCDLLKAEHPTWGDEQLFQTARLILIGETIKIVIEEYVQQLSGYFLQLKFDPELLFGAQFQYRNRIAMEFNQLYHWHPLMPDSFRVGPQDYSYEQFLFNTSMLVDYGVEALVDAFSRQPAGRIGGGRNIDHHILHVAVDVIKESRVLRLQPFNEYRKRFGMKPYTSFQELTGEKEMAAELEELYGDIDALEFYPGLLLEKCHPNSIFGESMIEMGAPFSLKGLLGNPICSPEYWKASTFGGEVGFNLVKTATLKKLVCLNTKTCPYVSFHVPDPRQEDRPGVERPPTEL

RAW264.7 [9] = test: Antiinflammatory activity against LPS-stimulated mouse RAW264.7 cells assessed as inhibition of NO production at 8.8 to 70 uM prestimulated with LPS and 2 hrs later incubated with compound by Griess reagent based assay; assay type: functional, cell-based; conditions: dose 8.8-70 µM
Mus musculus = test: Anti-inflammatory activity against TPA-induced auricular edema CD-1 mouse model assessed as inhibition of ear edema at 1 mg per ear applied immediately after TPA application and measured after 4 hrs relative to control; assay type: functional
RAW264.7 [10] = test: Antiinflammatory activity against LPS-stimulated mouse RAW264.7 cells assessed as inhibition of IL-6 production at 8.8 to 35 uM prestimulated with LPS and 2 hrs later incubated with compound by […] assay; assay type: functional, cell-based; conditions: dose 8.8-35 µM
RAW264.7 [11] = test: Cytotoxicity against mouse RAW264.7 cells assessed as reduction in cell viability at 8.8 to 70 uM incubated for 24 hrs by MTS assay; assay type: toxicity, cell-based; conditions: raw264.7, 24 h, dose 8.8-70 µM
[12] = target: T2, Prostaglandin G/H synthase 2 (Homo sapiens) (UniProt P35354); test: Inhibition of human COX-2 at 17.5 uM using arachidonic acid as substrate by colorimetric analysis
T2 sequence (whole entry): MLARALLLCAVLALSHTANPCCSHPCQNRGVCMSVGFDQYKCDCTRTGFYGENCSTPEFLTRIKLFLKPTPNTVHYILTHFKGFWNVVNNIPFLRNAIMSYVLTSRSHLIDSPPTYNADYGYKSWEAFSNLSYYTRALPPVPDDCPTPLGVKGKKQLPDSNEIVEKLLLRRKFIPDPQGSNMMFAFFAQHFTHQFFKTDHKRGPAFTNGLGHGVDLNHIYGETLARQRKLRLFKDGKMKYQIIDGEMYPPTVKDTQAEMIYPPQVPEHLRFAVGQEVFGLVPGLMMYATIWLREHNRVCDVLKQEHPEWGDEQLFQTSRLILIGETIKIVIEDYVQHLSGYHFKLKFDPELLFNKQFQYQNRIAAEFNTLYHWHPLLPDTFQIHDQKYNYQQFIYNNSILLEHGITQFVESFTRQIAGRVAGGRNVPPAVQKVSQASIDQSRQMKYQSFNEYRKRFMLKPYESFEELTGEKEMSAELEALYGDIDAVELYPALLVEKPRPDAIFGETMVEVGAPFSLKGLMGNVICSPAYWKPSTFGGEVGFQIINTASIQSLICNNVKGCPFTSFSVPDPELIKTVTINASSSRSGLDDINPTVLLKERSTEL

RAW264.7 [13] = test: Antiinflammatory activity against LPS-stimulated mouse RAW264.7 cells assessed as inhibition of TNF-alpha production at 17.5 to 70 uM prestimulated with LPS and 2 hrs later incubated with compound by […] assay; assay type: functional, cell-based; conditions: dose 17.5-70 µM
RAW264.7 [14] = test: Antiinflammatory activity against LPS-stimulated mouse RAW264.7 cells assessed as inhibition of IL-6 production at 17.5 to 70 uM prestimulated with LPS and 2 hrs later incubated with compound by […] assay; assay type: functional, cell-based; conditions: dose 17.5-70 µM
RAW264.7 [15] = test: Antiinflammatory activity against LPS-stimulated mouse RAW264.7 cells assessed as inhibition of IL-6 production at 70 uM incubated for 2 hrs followed by LPS stimulation for 20 hrs by ELISA relative to control; assay type: functional; conditions: time 22 hrs
RAW-Blue [16] = test: Inhibition of NF-kappaB activation in LPS-stimulated mouse RAW-Blue cells at 70 uM preincubated for 2 hrs followed by LPS stimulation and measured after 20 hrs by QUANTI-Blue assay; assay type: cell-based; conditions: time 22.0 hrs
RAW264.7 [17] = test: Antiinflammatory activity against LPS-stimulated mouse RAW264.7 cells assessed as inhibition of TNF-alpha production at 70 uM incubated for 2 hrs followed by LPS stimulation for 20 hrs by ELISA relative to control; assay type: functional; conditions: time 22 hrs
[18] = Cytotoxicity against mouse RAW264.7 cells assessed as cell viability at 35 uM incubated for 24 hrs by MTS assay relative to control; assay type: toxicity, cell-based; conditions: read-out: Activity
RAW-Blue [19] = test: Inhibition of NF-kappaB activation in LPS-stimulated mouse RAW-Blue cells at 17.5 uM preincubated for 2 hrs followed by LPS stimulation and measured after 20 hrs by QUANTI-Blue assay; assay type: cell-based; conditions: time 22.0 hrs
RAW264.7 [20] = test: Antiinflammatory activity against LPS-stimulated mouse RAW264.7 cells assessed as inhibition of TNF-alpha production at 84 uM incubated for 2 hrs followed by LPS stimulation for 20 hrs by ELISA relative to control; assay type: functional; conditions: time 22 hrs
RAW264.7 [21] = test: Antiinflammatory activity against LPS-stimulated mouse RAW264.7 cells assessed as inhibition of IL-6 production at 84 uM incubated for 2 hrs followed by LPS stimulation for 20 hrs by ELISA relative to control; assay type: functional; conditions: time 22 hrs

C=C(C)[C@@H]1CC[C@]2(C)CC[C@]3(C)[C@H](CC[C@@H]4[C@@](C)(CCCN5C[C@H](O)C[C@H]5C(=O)OC)[C@H](C(=C)C)CC[C@]43C)[C@@H]12
viability at 24 h, 70 µM [1]: 64.2% | IC50 (RAW264.7 [2]): 23.2 µM | IC50 (RAW264.7 [3]): 11.1 µM | inhibition (RAW-Blue [4]): 87.4% | inhibition at 35 µM (RAW264.7 [5]): 55.7% | Activity (RAW264.7 [6]): Active | Activity (RAW264.7 [7]): Active | inhibition at 17.5 µM [8]: 7.2% | Activity (RAW264.7 [9]): Active | inhibition (INH) (Mus musculus): 36.4% | Activity (RAW264.7 [10]): Active

C=C(C)[C@@H]1CC[C@]2(C)[C@H](CC=C3[C@@H]4[C@@H](C)[C@H](C)CC[C@]4(C)CC[C@]32C)[C@@]1(C)CCCNCC(=O)OC
inhibition at 17.5 µM [8]: 33.3% | Activity (RAW264.7 [11]): Non-Toxic | inhibition (INH) (Mus musculus): 40.1% | inhibition [12]: 61.8%

C=C(C)[C@@H]1CC[C@]2(C)[C@H](CC=C3[C@@H]4[C@@H](C)[C@H](C)CC[C@]4(C)CC[C@]32C)[C@@]1(C)CCCN1C[C@H](O)C[C@H]1C(=O)OC
IC50 (RAW264.7 [2]): 42.9 µM | Activity (RAW264.7 [13]): Active | Activity (RAW264.7 [14]): Active | inhibition at 70 µM (RAW264.7 [15]): 89.1% | inhibition at 17.5 µM [8]: 37.3% | Activity (RAW264.7 [11]): Non-Toxic | Activity (RAW264.7 [9]): Active | inhibition (INH) (Mus musculus): 25.2% | inhibition (RAW-Blue [16]): 96.2% | inhibition [12]: 61.8% | inhibition at 70 µM (RAW264.7 [17]): 70%

C=C(C)[C@@H]1CC[C@]2(C)[C@H](CC=C3[C@@H]4[C@@H](C)[C@H](C)CC[C@]4(C)CC[C@]32C)[C@@]1(C)CCCN1CCOCC1
viability at 24 h, 70 µM [1]: 73.8% | inhibition at 17.5 µM [8]: 12.2% | inhibition (INH) (Mus musculus): 12.2% | inhibition [12]: 74.4%

C=C(C)[C@@H]1CC[C@]2(C)CC[C@]3(C)[C@H](CC[C@@H]4[C@@](C)(CCCN5CCOCC5)[C@H](C(=C)C)CC[C@]43C)[C@@H]12
Activity (RAW264.7 [11]): Non-Toxic | inhibition (INH) (Mus musculus): 11.1% | inhibition [12]: 49.2%

C=C(C)[C@@H]1CC[C@]2(C)[C@H](CC=C3[C@@H]4[C@@H](C)[C@H](C)CC[C@]4(C)CC[C@]32C)[C@@]1(C)CCCO
IC50 (RAW264.7 [2]): 58.9 µM | Activity (RAW264.7 [13]): Active | Activity (RAW264.7 [14]): Active | inhibition at 70 µM (RAW264.7 [15]): 40.2% | Activity (RAW264.7 [11]): Non-Toxic | Activity (RAW264.7 [9]): Active | inhibition (INH) (Mus musculus): 9.5% | inhibition (RAW-Blue [16]): 22% | inhibition [12]: 66.3% | inhibition at 70 µM (RAW264.7 [17]): 68.5%

C[C@H]1[C@H](C)CC[C@]2(C(=O)O)CC[C@]3(C)C(=CC[C@@H]4[C@@]5(C)CC[C@H](O)C(C)(C)[C@@H]5CC[C@]43C)[C@H]12 [URSOLIC ACID]
viability at 24 h, 70 µM [1]: 13.9% | IC50 (RAW264.7 [2]): 13.8 µM | viability at 24 h, 35 µM [18]: 30% | inhibition (RAW-Blue [19]): 52.2% | inhibition at 17.5 µM [8]: 23.6% | inhibition (INH) (Mus musculus): 34.2%

COc1ccc2c(c1)c(CC(=O)O)c(C)n2C(=O)c1ccc(Cl)cc1 [INDOMETHACIN]
IC50 (RAW264.7 [2]): 40.7 µM | inhibition at 84 µM (RAW264.7 [20]): 54.6% | inhibition at 84 µM (RAW264.7 [21]): 44.2% | inhibition (INH) (Mus musculus): 91.4%

C=C(C)[C@@H]1CC[C@]2(C)CC[C@]3(C)[C@H](CC[C@@H]4[C@@]5(C)CC[C@@H](O)C(C)(C)[C@@H]5CC[C@]43C)[C@H]12
inhibition (INH) (Mus musculus): 66.4%

C=C(C)[C@@H]1CC[C@]2(C)CC[C@]3(C)[C@H](CC[C@@H]4[C@@](C)(CCCO)[C@H](C(=C)C)CC[C@]43C)[C@@H]12
IC50 (RAW264.7 [2]): 54.4 µM | Activity (RAW264.7 [13]): Active | IC50 (RAW264.7 [3]): 38 µM | Activity (RAW264.7 [14]): Active | inhibition at 17.5 µM [8]: 14.8% | Activity (RAW264.7 [11]): Non-Toxic | Activity (RAW264.7 [9]): Active | inhibition (INH) (Mus musculus): 17.3% | inhibition (RAW-Blue [16]): 63.4% | inhibition [12]: 26% | inhibition at 70 µM (RAW264.7 [17]): 49.8%
